Reference: patent publication US20150284385A1, “CERTAIN DIPEPTIDYL PEPTIDASE INHIBITORS” (SHANGHAI FOCHON PHARMACEUTICAL CO LTD, priority 2012, published 2015)
Where two headings read alike, the source gives them in different places.

How the values were obtained:
Recombinant human DPP-IV = Recombinant human DPP-IV (Homo sapiens, UniProt P27487); experiment: DPP-IV assay in vitro (H-Ala-Pro-AFC fluorescence); type: biochemical; details: 30 min pre-incubation, H-Ala-Pro-AFC 50 μM
Method: DPP-IV Assay Solutions of test compounds in varying concentrations (10^−5 mol/L, 10^−6 mol/L, 10^−7 mol/L, 10^−8 mol/L, 10^−9 mol/L, 10^−10 mol/L, 10^−11 mol/L, and 10^−12 mol/L) were prepared in dimethyl sulfoxide (DMSO) and then diluted into assay buffer comprising: 10 mM Tris-HCl pH 8.0, 0.2 M NaCl, and 0.1% BSA. Recombinant human DPP-IV (7.8 ng/ml final concentration) was added to the dilutions and pre-incubated for 30 mins at room temperature before the reaction was initiated with H-Ala-Pro-AFC (50 μM final concentration). The total volume of the reaction mixture was 100 μl.
Inhibition constants (IC50) were calculated by GraphPad Prism.

DPP-4 = target: T1, DPP-4 (Mus musculus, UniProt P28843); experiment: Plasma DPP-4 activity in mice after oral dosing; type: in vivo, ICR mice; details: read-out: DPP-4 Relative activity %; for activity at 1 mg/kg: oral 1 mg/kg; for activity at 3 mg/kg: mice plasma, oral 3 mg/kg
T1 construct: Blood sample was processed to obtain plasma; from tissue; host or cells: plasma of male ICR mice
Method: Some of the exemplary compounds were tested in mice to assess inhibition of DPP-4 activity via plasma DPP-4 activity. Male ICR mice (25-30 g) were used for this study. All the mice were fasted at least 3 hours before study. Mice (n=6/group) received vehicle or at least one of the exemplary compounds by oral gavage. The dosing solutions were 0.15 mg/ml for the 3 mg/kg. Dosing volume was 20 mL/kg of body weight for all doses. The vehicle was distilled water. […] Blood sample was processed to obtain plasma (2000 g, 5 min, 4° C.) within 15 min after sampling.
Plasma was collected and tested by fluoremetry. Before the testing, 80 mM MgCl2 buffer was added into the 5 uL serum samples and pre-incubation for 5 minutes at room temperature, then […] of 0.1 mM substrate Gly-Pro-AMC and 20 μL of buffer were added into them. The fluorescence of the mixture was measured every 3 minutes after mixing (excitation at 380 nm; emission at 460 nm). After 6 times of measurements, a time-fluorescence cure was obtained. The slope of the curve would be the activity of DPP-4 in serum. The DPP-4 activity before administration was 100%. The relative activity of DPP-4 in serum was calculated using the formula below:
Relative DPP-4activity=DPP-4activity after dosing/DPP-4activity before dosing×100%.

[1] = Table 4 Test 1, mice plasma, 1 h after dosing
[2] = Table 4 Test 1, mice plasma, 2 h after dosing
[3] = Table 4 Test 1, mice plasma, 4 h after dosing
[4] = Table 4 Test 1, mice plasma, 6 h after dosing
[5] = Table 4 Test 1, mice plasma, 9 h after dosing

T1 sequence (P28843 37-760 limits assumed): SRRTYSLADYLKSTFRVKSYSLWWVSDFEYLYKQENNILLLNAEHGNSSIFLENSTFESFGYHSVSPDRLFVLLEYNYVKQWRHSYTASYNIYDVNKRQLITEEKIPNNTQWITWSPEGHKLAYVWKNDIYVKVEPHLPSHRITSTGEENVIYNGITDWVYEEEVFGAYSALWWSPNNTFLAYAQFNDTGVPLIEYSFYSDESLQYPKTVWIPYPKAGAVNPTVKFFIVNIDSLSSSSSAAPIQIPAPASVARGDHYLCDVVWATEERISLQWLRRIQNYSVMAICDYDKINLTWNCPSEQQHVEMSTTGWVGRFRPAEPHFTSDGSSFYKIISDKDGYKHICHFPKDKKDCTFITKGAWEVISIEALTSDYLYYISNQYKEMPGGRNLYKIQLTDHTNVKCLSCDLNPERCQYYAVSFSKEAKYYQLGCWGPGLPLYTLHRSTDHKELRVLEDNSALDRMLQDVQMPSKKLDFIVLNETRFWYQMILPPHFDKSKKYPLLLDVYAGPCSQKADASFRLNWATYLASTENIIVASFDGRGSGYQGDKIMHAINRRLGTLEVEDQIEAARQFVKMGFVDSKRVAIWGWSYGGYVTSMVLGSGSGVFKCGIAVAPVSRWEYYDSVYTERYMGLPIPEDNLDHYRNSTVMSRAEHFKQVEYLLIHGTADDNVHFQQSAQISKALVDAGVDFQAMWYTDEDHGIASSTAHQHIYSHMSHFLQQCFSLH
Sequence of Recombinant human DPP-IV (P27487 whole entry): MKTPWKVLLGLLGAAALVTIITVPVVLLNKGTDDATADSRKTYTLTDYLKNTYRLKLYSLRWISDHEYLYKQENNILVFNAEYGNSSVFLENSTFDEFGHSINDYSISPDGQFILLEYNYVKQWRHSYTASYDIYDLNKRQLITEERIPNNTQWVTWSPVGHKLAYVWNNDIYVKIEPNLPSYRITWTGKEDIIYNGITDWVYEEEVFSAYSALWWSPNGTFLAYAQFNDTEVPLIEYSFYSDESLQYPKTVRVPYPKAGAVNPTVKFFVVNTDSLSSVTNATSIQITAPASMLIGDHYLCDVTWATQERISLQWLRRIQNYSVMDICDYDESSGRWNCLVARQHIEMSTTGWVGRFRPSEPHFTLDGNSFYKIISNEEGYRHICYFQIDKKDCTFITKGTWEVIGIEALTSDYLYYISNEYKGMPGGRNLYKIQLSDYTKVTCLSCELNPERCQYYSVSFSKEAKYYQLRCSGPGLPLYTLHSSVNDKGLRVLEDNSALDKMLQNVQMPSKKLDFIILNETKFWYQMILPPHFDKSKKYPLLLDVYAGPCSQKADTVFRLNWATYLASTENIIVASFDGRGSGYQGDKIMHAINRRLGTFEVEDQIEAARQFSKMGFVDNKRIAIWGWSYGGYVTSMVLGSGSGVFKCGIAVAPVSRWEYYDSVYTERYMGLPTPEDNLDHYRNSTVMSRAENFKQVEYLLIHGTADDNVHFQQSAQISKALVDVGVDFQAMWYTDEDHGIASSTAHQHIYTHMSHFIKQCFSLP

Cc1nc(-c2ccn3c4c(nc3c2)C[C@H](c2cc(F)c(F)cc2F)[C@@H](N)C4)no1 [Example 4, (7R,8S)-3-(5-Methyl-1,2,4-oxadiazol-3-yl)-7-(2,4,5-trifluorophenyl)-6,7,8,9-tetrahydrobenzo[4,5]imidazo[1,2-a]pyridin-8-amine]
IC50 (Recombinant human DPP-IV): 1.9 nM | activity at 1 mg/kg (DPP-4; Table 4 Test 2, mice plasma, 1 h after dosing): 11.5 ± 1.8% | activity at 1 mg/kg (DPP-4; Table 4 Test 2, mice plasma, 2 h after dosing): 9 ± 1.3% | activity at 1 mg/kg (DPP-4; Table 4 Test 2, mice plasma, 4 h after dosing): 10.2 ± 1.8% | activity at 1 mg/kg (DPP-4; Table 4 Test 2, mice plasma, 6 h after dosing): 10.4 ± 1.8% | activity at 1 mg/kg (DPP-4; Table 4 Test 2, mice plasma, 9 h after dosing): 11.6 ± 1.6% | activity at 3 mg/kg (DPP-4; 1 h after dosing): 24.4 ± 2.8% | activity at 3 mg/kg (DPP-4; 2 h after dosing): 21.7 ± 1.7% | activity at 3 mg/kg (DPP-4; 3 h after dosing): 20.4 ± 2% | activity at 3 mg/kg (DPP-4; 5 h after dosing): 28.3 ± 2.3%

Cc1noc(-c2ccn3c4c(nc3c2)C[C@H](c2cc(F)c(F)cc2F)[C@@H](N)C4)n1 [Example 6, (7R,8S)-3-(3-Methyl-1,2,4-oxadiazol-5-yl)-7-(2,4,5-trifluorophenyl)-6,7,8,9-tetrahydrobenzo[4,5]imidazo[1,2-a]pyridin-8-amine]
IC50 (Recombinant human DPP-IV): 1.9 nM | activity at 1 mg/kg (DPP-4; [1]): 16.9 ± 1.4% | activity at 1 mg/kg (DPP-4; [2]): 15.9 ± 1.9% | activity at 1 mg/kg (DPP-4; [3]): 15.7 ± 1% | activity at 1 mg/kg (DPP-4; [4]): 16 ± 1.2% | activity at 1 mg/kg (DPP-4; [5]): 19.5 ± 1.8%

Cn1nnc(-c2ccn3c4c(nc3c2)C[C@H](c2cc(F)c(F)cc2F)[C@@H](N)C4)n1 [Example 11, (7R,8S)-3-(2-methyl-2H-tetrazol-5-yl)-7-(2,4,5-trifluorophenyl)-6,7,8,9-tetrahydrobenzo[4,5]imidazo[1,2-a]pyridin-8-amine]
IC50 (Recombinant human DPP-IV): 3 nM | activity at 1 mg/kg (DPP-4; Table 3, mice plasma, 1 h after dosing): 9 ± 1.4% | activity at 1 mg/kg (DPP-4; Table 3, mice plasma, 2 h after dosing): 11.5 ± 1.1% | activity at 1 mg/kg (DPP-4; Table 3, mice plasma, 4 h after dosing): 10.9 ± 2.8% | activity at 1 mg/kg (DPP-4; Table 3, mice plasma, 6 h after dosing): 11.5 ± 0.5% | activity at 1 mg/kg (DPP-4; Table 3, mice plasma, 9 h after dosing): 10 ± 1.3% | activity at 1 mg/kg (DPP-4; Table 3, mice plasma, 12 h after dosing): 11 ± 2% | activity at 1 mg/kg (DPP-4; Table 3, mice plasma, 24 h after dosing): 14.5 ± 2.2% | activity at 1 mg/kg (DPP-4; [1]): 9 ± 1.4% | activity at 1 mg/kg (DPP-4; [2]): 11.5 ± 1.1% | activity at 1 mg/kg (DPP-4; [3]): 10.9 ± 2.8% | activity at 1 mg/kg (DPP-4; [4]): 11.5 ± 0.5% | activity at 1 mg/kg (DPP-4; [5]): 10 ± 1.3% | activity at 1 mg/kg (DPP-4; Table 4 Test 1, mice plasma, 12 h after dosing): 11 ± 2.2% | activity at 1 mg/kg (DPP-4; Table 4 Test 1, mice plasma, 24 h after dosing): 14.5 ± 2.2%
